Assay results as given in paper PMC1940322, “The Effect of PPARα, PPARδ, PPARγ, and PPARpan Agonists on Body Weight, Body Mass, and Serum Lipid Profiles in Diet-Induced Obese AKR/J Mice” (PPAR Research, 2007).

Experiments:
Assay type in all cases: in vivo
[1] = tested on: diet-induced obese (DIO) AKR/J mouse; test: Food consumption in diet-induced obese AKR/J mice; details: compared to vehicle-treated animals; doses and regimen as in methods
Method: (§1) In each experiment, BW of each animal was measured and recorded three times weekly throughout the treatment period. Body mass was obtained weekly on days 0, 7, 13, 20, and 27 of treatment. The effects of selective PPARα, δ, and γ agonists on food consumption were also assessed. Food consumption is expressed as total energy consumed (kcal) over a 24-period and as cumulative consumption over the course of the experiment.
The fat content of Research Diets D12331 chow results in pellets that crumbles making it difficult to quantify food consumption thus, Research Diets D12451 chow (4.7 kcal/g (45% kcal from fat, 35% kcal from carbohydrates and 20% kcal from protein)) was used in studies where food consumption was determined as these pellets are more solid. The animals were transitioned two weeks before compound dosing from Research Diets D12331 chow to Research Diets D12451 chow. Previous experiments (data not presented) have shown that animals fed this diet maintain the same BW and fat mass level as observed at the time of transition.
(§2) Experiment 1 was designed to study the effects of a selective PPARα agonist and PPARδ agonist as mono and combination therapy. 48 mice were sorted into 6 groups and blocked such that initial BW and body composition were not different between groups. […] Two additional groups of mice were dosed for the first 14 days with either a PPARα agonist or a PPARδ agonist alone. At day 15, the PPARδ agonist was added to the treatment regimen of animals dosed with PPARα, and the PPARα agonist was added to the dosing material of animals previously dosed with PPARδ alone. The sixth group was dosed with both the PPARα and PPARδ agonists for the entire 28-day period. BW and food consumption were assessed 3 times per week and body composition was measured weekly.
In Experiment 2, 32 mice were sorted into 4 groups (n = 8/group) and dosed with vehicle and a selective PPARγ agonist (GW7845, 3 mg/kg) for 28 days. Rimonabant (RIM, 10 or 30 mg/kg, q.d.), a CB1 receptor antagonist, was used as a positive control for weight loss. As in Experiment 1, BW and food consumption were determined 3 times per week and body composition was measured weekly.

[2] = tested on: diet-induced obese (DIO) AKR/J mouse; test: Body weight, body composition (qMR) and liver weight in diet-induced obese AKR/J mice; details: for BW day 0: baseline before treatment; for Fat mass day 28 / Lean mass day 28: qMR; for Liver weight: terminal collection
Method: The effects of monotherapy with selective PPAR agonists, combination therapy with PPARα and PPARδ, and treatment with PPARpan agonists were evaluated in four experiments in diet-induced obese (DIO) AKR/J mouse. The AKR/J mouse is a polyoma-susceptible strain originally utilized to study accelerated tumor development. This strain becomes obese and hyperinsulemic when fed a high fat diet. Age-matched, male AKR/J mice were allowed ad libitum access to Research Diet D12331 (Research Diet, Brunswick, NJ) at the Jackson Laboratories (Bar Harbor, ME) beginning at 6 weeks of age. The diet has an energy density of 5.56 kcal/g (58% kcal from fat; 26% kcal from carbohydrates, and 16% kcal from protein). The animals were allowed to become obese, achieving BW >40 grams before shipping to GlaxoSmithKline laboratory animal facility at 13 weeks of age. The mice were housed 4 per cage in standard shoebox cages and were fed the high fat diet until they reached approximately 50 grams. Age-matched lean control animals obtained from Jackson Laboratories were fed a diet of normal chow (3.04 kcal/g energy density, 12% kcal from fat, LabDiet 5001, St. Louis, MO) and used for comparison.
At the beginning of each study, the animals were weighed and body composition obtained using an EchoMRI-100 quantitative magnetic resonance (qMR, EchoMRI, Houston, TX) whole body composition analyzer. […] 16 lean control mice on standard chow were used as reference. All mice were dosed orally with vehicle (0.5% methylcellulose and 0.1% Tween 80, 10 mL/kg) for six days prior to the beginning of dosing for acclimation to handling and treatment before drug treatment was initiated.
as §1
(§3) On the final day of each experiment, a terminal blood sample (800–1000 μL) was obtained via cardiac puncture under isoflurane anesthesia. Whole blood was placed in a Terumo Capiject blood collection tube (Terumo Medical Corp., Elkton, Md, USA), allowed to sit at room temperature for 20 minutes then centrifuged to obtain serum. Serum levels of glucose, triglycerides, glycerol, nonesterified fatty acids, total cholesterol, the high-density lipoprotein cholesterol, and β-hydroxybutyrate were determined in all mice using an Olympus AU640 clinical chemistry immuno-analyzer (Olympus America Inc., Melville, NY, USA). In addition, liver weights were obtained following the terminal blood sample on the final day of the study and samples were used to determine liver fatty acid oxidation activity.
as §2
In Experiment 2, 32 mice were sorted into 4 groups (n = 8/group) and dosed with vehicle and a selective PPARγ agonist (GW7845, 3 mg/kg) for 28 days. Rimonabant (RIM, 10 or 30 mg/kg, q.d.), a CB1 receptor antagonist, was used as a positive control for weight loss. […]

[3] = tested on: diet-induced obese (DIO) AKR/J mouse; test: Serum clinical chemistry of terminal blood samples, DIO AKR/J mice; details: serum, end of treatment, 28 days
Method: as §3

Cc1c(C(=O)NN2CCCCC2)nn(-c2ccc(Cl)cc2Cl)c1-c1ccc(Cl)cc1 [RIM, Rimonabant, reference compound]
effect on food consumption (in words) [1]: dose-related decreases in food consumption | BW day 28 ([2]; 10 mg/kg oral, 28 days): 44.1 ± 1.3 grams | BW day 28 ([2]; 30 mg/kg oral, 28 days): 41.8 ± 0.5 grams | effect on FM (in words) ([2]; 28 days, doses as in methods): decreased FM in a dose-dependent manner | BW day 0 ([2]; group dosed 10 mg/kg oral): 50.6 ± 0.8 grams | BW day 0 ([2]; group dosed 30 mg/kg oral): 51.0 ± 0.7 grams | reduction of BW ([2]; highest dose (30 mg/kg), within the first 10 days of treatment): 17% | effect on BW (in words) ([2]; oral, 28 days, GW9578 1, GW0742 30, GW7845 3, RIM 10 and 30 mg/kg, PPARpan agonists): significant, dose-related decreases of BW | Fat mass day 28 ([2]; 10 mg/kg oral, 28 days): 15.0 ± 0.9 grams | Lean mass day 28 ([2]; 10 mg/kg oral, 28 days): 25.2 ± 0.8 grams | Fat mass day 28 ([2]; 30 mg/kg oral, 28 days): 11.6 ± 0.3 grams | Lean mass day 28 ([2]; 30 mg/kg oral, 28 days): 26.5 ± 0.5 grams | Liver weight ([2]; 10 mg/kg oral, 28 days): 2.0 ± 0.1 grams | Liver weight ([2]; 30 mg/kg oral, 28 days): 2.0 ± 0.1 grams | Cholesterol ([3]; 10 mg/kg oral): 147.3 ± 9.1 mg/dL | Glucose ([3]; 10 mg/kg oral): 230.1 ± 16.6 mg/dL | HDL-C ([3]; 10 mg/kg oral): 95.1 ± 4.6 mg/dL | Insulin ([3]; 10 mg/kg oral): 7.2 ± 2.5 ng/mL | NEFA ([3]; 10 mg/kg oral): 0.8 ± 0.05 mEq/L | Triglyceride ([3]; 10 mg/kg oral): 181.4 ± 36.1 mg/dL | bHBA ([3]; 10 mg/kg oral): 2.5 ± 0.2 mg/dL | Cholesterol ([3]; 30 mg/kg oral): 143.4 ± 4.0 mg/dL | Glucose ([3]; 30 mg/kg oral): 215.3 ± 13.0 mg/dL | HDL-C ([3]; 30 mg/kg oral): 116.9 ± 2.6 mg/dL | Insulin ([3]; 30 mg/kg oral): 3.4 ± 0.7 ng/mL | NEFA ([3]; 30 mg/kg oral): 0.9 ± 0.02 mEq/L | Triglyceride ([3]; 30 mg/kg oral): 159.7 ± 16.1 mg/dL | bHBA ([3]; 30 mg/kg oral): 1.8 ± 0.2 mg/dL
